# Measured values reported in EP4671239A1, “ARYL SUBSTITUENT-CONTAINING DEGRADATION AGENT FOR CDK12/13, PREPARATION METHOD THEREFOR, AND PHARMACEUTICAL COMPOSITION AND USE THEREOF” (Shanghai Institute of Organic Chemistry, Chinese Academy of …, priority 2023, dated 2024).
# Experiments:
# [1] = system: prostate cancer VCap cells; assay: Proliferation-inhibiting activity on VCap cells (CellTiter-Glo); format: cell-based; settings: Homo sapiens; VCap cell line, CellTiter-Glo (FIG. 6)
# Protocol: The cell proliferation-inhibiting activity of the compounds was determined using the CellTiter-Glo Luminescent Cell Viability Assay (Promega, Madison, WI). The cells were seeded in a 96-well plate in their respective culture media and incubated at 37°C in a 5% CO2 incubator. After overnight incubation, serial dilutions of the compounds were prepared and added to the 96-well plate. A volume of CellTiter-Glo reagent equal to the volume of the cell culture medium present in each well was added (e.g., 100 microliters of the reagent was added to 100 microliters of the culture medium for the cells in the 96-well plate). The contents were mixed on an orbital shaker for 2 min to induce cell lysis. The 96-well plate was incubated at room temperature for 10 minutes to stabilize a luminescent signal. Luminescence was recorded: the luminescence signal of each well was acquired using an Infinite M1000 Pro plate reader (Tecan, Zürich, Switzerland), and the data were analyzed using GraphPad Prism software (GraphPad Software Inc, La Jolla, CA).
# [2] = system: CDK12 and CDK13 proteins; assay: Degradation activity on CDK12/13 in 22RV1 cells (Western Blot); format: cell-based; settings: 22RV1 cells; for degradation of CDK12 and CDK13 protein levels in cells: 500 nM, 6 hours, WB (FIG. 4); for degradation of CDK12 and CDK13 proteins: 100 nM, 6 h (FIG. 5); for dose dependence of degradation of CDK12 and CDK13 proteins: different concentrations, 6 h (FIG. 4B, FIG. 5)
# Protocol: Experimental methods: The cell line, 22RV1 cell line was purchased from the American Type Culture Collection (ATCC). Conventional Western Blot was used for detection as follows: 22RV1 cells were seeded in a certain number in a 12-well plate, and cultured overnight in an incubator in an adherent manner. […] The cells were lysed with a lysis buffer, and samples were collected. Then, an appropriate amount of the samples was taken for SDS-PAGE electrophoresis. After electrophoresis, the proteins were transferred to nitrocellulose membranes using a semi-dry electro-transfer system. The nitrocellulose membrane was placed in a blocking solution (5% skim milk powder diluted in TBS containing 0.1% Tween 20) and blocked at room temperature for 2 h. The membranes were then placed in a primary antibody solution (1: 1000 diluted in TBS containing 0.1% Tween 20), respectively, and incubated at 4°C overnight. The cells were washed three times with TBS containing 0.1% Tween 20, each time for 15 min. The membrane was placed in a secondary antibody solution (horseradish peroxidase-labeled goat anti-rabbit IgG, diluted at 1:1000 in TBS containing 0.1% Tween 20) and reacted at room temperature for 1 h. After washing the membrane three times as above, the membrane was developed with ECL plus reagent and photographed using Amersham Imager 600 system.
# [3] = Pharmacokinetics and bioavailability test in rats (Example 60); format: in vivo; settings: SD rats; for F: bioavailability calculated from AUC; for oral pharmacokinetic properties: summary in words of Tables 2-6; for Cmax / Tmax / clearance / half-life: rat
# Protocol: Pharmacokinetics and bioavailability tests in rats. SD rats were given a single oral (10 mg/kg), intravenous (2.5 mg/kg) and intraperitoneal (10 mg/kg) dose, followed by animal blood sample collection at appropriate time points. Heparin was added for anticoagulation, and the samples were centrifuged at 8000 rpm for 6 min. The supernatant was collected and stored at -20°C for HPLC-MS analysis. The blood samples underwent protein precipitation with acetonitrile at 12 000 rpm * 10 min, and the supernatant was used for HPCL-MS analysis. The data underwent parameter fitting with DAS2.0, to obtain compartmental model and non-compartmental model parameters, respectively. The oral bioavailability of the compounds was calculated based on the area under the plasma concentration-time curve (AUC) data. […] Table 2. Pharmacokinetic experimental results of compounds YJZ9069 and YJZ1102
# [4] = system: triple negative breast cancer cells MDA-MB-231; assay: Proliferation-inhibiting activity on MDA-MB-231 cells (Cell Counting Kit-8); format: cell-based; settings: Homo sapiens, 120 h; MDA-MB-231 cell line, 5 days, cck-8 (FIG. 3)
# Protocol: The cell proliferation-inhibiting activity of the compounds was determined using Cell Counting Kit-8 Cell Viability Assay (Selleck.cn). The cells were seeded into a 384-well plate (CORNING® PS 3701) containing the corresponding culture medium and incubated in an incubator at 37°C with 5% CO2. After overnight incubation, a high-concentration stock solution of each compound to be tested was prepared; the compound was added to the 384-well plate according to a concentration gradient using an Echo® 650 Liquid Handler (LABCYTE®). After administration, the cell plate was placed in an incubator at 37°C with 5% CO2 and incubated for 5 days. Then, 5 µL of cck-8 reagent was added to each well of the 384-well plate using MULTIDROP® (Thermo Scientific™), and the plate was returned to the incubator for incubation for 1.5-2 h. After incubation, the plate was removed and centrifuged to remove bubbles. The absorbance of each well at 450 nm and 650 nm was obtained using EnVision® (PerkinElmer®). GraphPad Prism software (GraphPad Software Inc.) was used to process and analyze the data.
# [5] = system: CDK12 and CDK13 proteins; assay: Degradation activity on CDK12/13 in MDA-MB-231 cells (Western Blot); format: cell-based; settings: 0.1µM or 0.3µM, 15 h, WB (FIG. 1)
# Protocol: Experimental methods: The cell line MDA-MB-231 was purchased from the American Type Culture Collection (ATCC). Conventional Western Blot was used for detection, as follows: MDA-MB-231 cells were seeded at a density of 2 x 10^5/mL in a 12-well plate, with 1 mL per well, and cultured overnight in an incubator in an adherent manner. Then, a certain concentration of compounds was added to act for 15 h. The cells were lysed with a lysis buffer, and protein samples were collected. An appropriate amount of the sample was taken for SDS-PAGE electrophoresis. After electrophoresis, the protein was transferred to a polyvinylidene fluoride (PVDF) membrane using a wet electro-transfer system. The PVDF membrane after electro-transfer was cut into several required strips, which were then placed in a blocking solution (5% skim milk powder diluted in TBS containing 0.1% Tween 20) and blocked at room temperature for 1.5 h. A primary antibody solution was prepared by diluting a primary antibody against the corresponding target protein in TBS containing 0.1% Tween 20 according to the dilution requirements of different antibodies, such as 1:1000 (CST), 1:3000 (Proteintech, Bethyl), and 1:200 (Santacruz). The blocked membrane was placed in the corresponding primary antibody solution and incubated at 4°C for 12-14 h. Then, the cells were washed three times with TBS containing 0.1% Tween 20, each time for 5 min. After washing, the membrane was placed in a secondary antibody solution (horseradish peroxidase-labeled goat anti-rabbit IgG, diluted at 1:2000 in TBS containing 0.1% Tween 20) and reacted at room temperature for 2 h. After washing the membrane three times as above, the membrane was developed with StarSignal plus reagent (GenStar®) and Omni-ECL reagent (Yazyme®), and photographed with Amersham Imager 800 system.
# [6] = Sprague-Dawley, plasma, IV 2.5 mg/kg
# [7] = Sprague-Dawley, plasma, PO 10 mg/kg
Compound,IC50 [1],degradation of CDK12 and CDK13 protein levels in cells [2],F ([3]; PO 10 mg/kg),oral pharmacokinetic properties [3],"Cmax [3, 6]","Tmax [3, 6]","clearance [3, 6]","half-life [3, 6]","Cmax [3, 7]","Tmax [3, 7]","half-life [3, 7]",degradation of CDK12 and CDK13 proteins [2],dose dependence of degradation of CDK12 and CDK13 proteins [2],IC50 [4],degradation of CDK12 and CDK13 protein levels in cells [5],also measured
"O=C1CCC(N2C(=O)c3ccc(N4CCC(N5CCN(c6ccc(N(C(=O)NCc7ccccc7)[C@H]7CC[C@H](Nc8ncc9ccccc9n8)CC7)cc6)CC5)CC4)cc3C2=O)C(=O)N1 (stereo partly shown) [YJZ1105, 3-benzyl-1-(4-(4-(1-(2-(2,6-dioxopiperidin-3-yl)-1,3-dioxoisoindol-5-yl)piperidin-4-yl)-piperazin-1-yl)phenyl)-1-((1r,4r)-4-(quinazolin-2-ylamino)cyclohexyl)urea]",0.0151 µM,effectively degrade,26.64%,excellent,1390 ng/mL,0.08 h,4.8 mL/min/kg,7.05 h,625 ng/mL,6 h,7.2 h,–,–,–,–,–
O=C1CCC(N2C(=O)c3cc(F)c(N4CCC(N5CCN(c6ccc(N(C(=O)NCc7ccccc7)[C@H]7CC[C@H](Nc8ncc9ccccc9n8)CC7)cc6)CC5)CC4)cc3C2=O)C(=O)N1 (stereo partly shown) [YJZ1201],0.0644 µM,effectively degrade,39.60%,excellent,2510 ng/mL,0.08 h,3.27 mL/min/kg,10.8 h,1040 ng/mL,6.67 h,12.4 h,almost completely degrade,dose-dependent manner,–,–,–
"O=C1CCC(N2C(=O)c3ccc(N4CCN(C5CCN(c6ccc(N(C(=O)NCc7ccccc7)[C@H]7CC[C@H](Nc8ncc9ccccc9n8)CC7)cc6)CC5)CC4)cc3C2=O)C(=O)N1 (stereo partly shown) [YJZ1202, 3-benzyl-1-(4-(4-(2-(2,6-dioxopiperidin-3-yl)-1,3-dioxoisoindole-5-yl)piperazin-1-yl)piperidin-1-ylphenyl)-1-((1r,4r)-4-(quinazolin-2-ylamino)cyclohexyl)urea]",0.0175 µM,effectively degrade,13.51%,excellent,–,–,–,–,–,–,–,almost completely degrade,dose-dependent manner,–,–,"Cmax ([3]; in vivo, IV 2.5 mg/kg): 2310 ng/mL; Tmax ([3]; in vivo, IV 2.5 mg/kg): 0.08 h; clearance ([3]; in vivo, IV 2.5 mg/kg): 6.7 mL/min/kg; half-life ([3]; in vivo, IV 2.5 mg/kg): 4.13 h; Cmax ([3]; in vivo, PO 10 mg/kg): 291 ng/mL; Tmax ([3]; in vivo, PO 10 mg/kg): 5.33 h; half-life ([3]; in vivo, PO 10 mg/kg): 3.76 h"
O=C1CCC(N2C(=O)c3ccc(N4CCC(N5CCN(c6ccc(N(C(=O)NCc7ccccc7F)[C@H]7CC[C@H](Nc8ncc9ccccc9n8)CC7)cc6)CC5)CC4)cc3C2=O)C(=O)N1 (stereo partly shown) [YJZ1203],0.0188 µM,effectively degrade,16.95%,excellent,3060 ng/mL,0.08 h,5.22 mL/min/kg,6.19 h,382 ng/mL,6.7 h,6.4 h,almost completely degrade,dose-dependent manner,–,–,–
"O=C1CCC(N2C(=O)c3ccc(N4CCC(N5CCN(c6ccc(N(C(=O)NCc7ccccc7)[C@H]7CC[C@H](Nc8ncc9ccccc9n8)CC7)cc6F)CC5)CC4)cc3C2=O)C(=O)N1 (stereo partly shown) [YJZ1204, 3-benzyl-1-(4-(4-(1-(2-(2,6-dioxopiperidin-3-yl)-1,3-dioxoisoindole-5-yl)piperidin-4-yl)-piperazin-1-yl)-3-fluorophenyl)-1-((1r,4r)-4-(quinazolin-2-ylamino)cyclohexyl)urea]",0.0233 µM,effectively degrade,30.13%,excellent,2290 ng/mL,0.08 h,6.01 mL/min/kg,8.54 h,457 ng/mL,7.33 h,10.8 h,almost completely degrade,dose-dependent manner,–,–,–
O=C1CCC(N2C(=O)c3ccc(N4CCC(N5CCN(c6ccc(N(C(=O)NCc7ccccc7)[C@H]7CC[C@H](Nc8ncc9ccccc9n8)CC7)cn6)CC5)CC4)cc3C2=O)C(=O)N1 (stereo partly shown) [YJZ1205],0.0135 µM,effectively degrade,15.87%,excellent,3620 ng/mL,0.08 h,3.93 mL/min/kg,3.81 h,581 ng/mL,4.7 h,4.2 h,almost completely degrade,dose-dependent manner,–,–,–
N#Cc1ccc(N[C@H]2CC[C@H](N(C(=O)NCc3ccccc3)c3ccc(N4CCN(CC5CN(c6ccc7c(c6)C(=O)N(C6CCC(=O)NC6=O)C7=O)C5)CC4)cc3)CC2)nc1 (stereo partly shown) [ZLC5-6],–,–,–,–,–,–,–,–,–,–,–,–,–,0.498 µM,effectively degrade,–
N#Cc1ccc(N[C@H]2CC[C@H](N(C(=O)NCc3ccccc3)c3ccc(N4CCN(C(=O)C5CCN(c6ccc7c(c6)C(=O)N(C6CCC(=O)NC6=O)C7=O)CC5)CC4)cc3)CC2)nc1 (stereo partly shown) [ZLC5-31],–,–,–,–,–,–,–,–,–,–,–,–,–,0.389 µM,effectively degrade,–
N#Cc1ccc(N[C@H]2CC[C@H](N(C(=O)NCc3ccccc3)c3ccc(N4CCN(C[C@H]5CCN(c6ccc7c(c6)C(=O)N(C6CCC(=O)NC6=O)C7=O)C5)CC4)cc3)CC2)nc1 (stereo partly shown) [ZLC6-1],–,–,–,–,–,–,–,–,–,–,–,–,–,0.289 µM,effectively degrade,–
